Experimental data reported in patent US20080194616A1, “PYRIDOPYRIMIDINONE COMPOUNDS USEFUL IN TREATING SODIUM CHANNEL-MEDIATED DISEASES OR CONDITIONS” (Xenon Pharmaceuticals Inc., priority 2007, published 2008).
Structures can show the parent of a compound that is named as a salt.

Tested on: not given
Assay: not given
Conditions: not given
A melting point of 132 to 135 °C was found for `CCCCc1nc2ccccn2c(=O)c1-c1ccc(NC(=O)OC(C)(C)C)cc1` [Example 1.15, tert-butyl 4-(2-butyl-4-oxo-4H-pyrido[1,2-a]pyrimidin-3-yl)phenylcarbamate] in this work.
With `CCCCc1nc2ccccn2c(=O)c1-c1ccc(O)cc1` [Example 11, 2-butyl-3-(4-hydroxyphenyl)-4H-pyrido[1,2-a]pyrimidin-4-one] the melting point was 160 °C (dec.).

Tested on: sodium channel
Assay: Guanidine Influx Assay (In Vitro Assay)
Type: cell-based, human or rat
Conditions: known cell line that expresses a sodium channel; read-out: IC50 Activity Level
Text: This example describes an in vitro assay for testing and profiling test agents against human or rat sodium channels stably expressed in cells of either an endogenous or recombinant origin. The assay is also useful for determining the IC-50 of a sodium channel blocking compound. The assay is based on the guanidine flux assay described by Reddy, N. L., et al., J. Med. Chem. (1998), 41(17):3298-302.
The guanidine influx assay is a radiotracer flux assay used to determine ion flux activity of sodium channels in a high-throughput microplate-based format. The assay uses ^14C-guanidine hydrochloride in combination with various known sodium channel modulators, to assay the potency of test agents. Potency is determined by an IC-50 calculation. Selectivity is determined by comparing potency of the compound for the channel of interest to its potency against other sodium channels (also called ‘selectivity profiling’).
Each of the test agents is assayed against cells that express the channels of interest. Voltage gated sodium channels are either TTX sensitive or insensitive. This property is useful when evaluating the activities of a channel of interest when it resides in a mixed population with other sodium channels. The following Table 1 summarizes cell lines useful in screening for a certain channel activity in the presence or absence of TTX.
Cells expressing the channel of interest are grown according to the supplier or in the case of a recombinant cell in the presence of selective growth media such as G418 (Gibco/Invitrogen). The cells are disassociated from the culture dishes with an enzymatic solution (1×) Trypsin/EDTA (Gibco/Invitrogen) and analyzed for density and viability using haemocytometer (Neubauer). Disassociated cells are washed and resuspended in their culture media then plated into Scintiplates (Beckman Coulter Inc.) (approximately 100,000 cells/well) and incubated at 37° C./5% CO2. for 20-24 hours. After an extensive wash with Low sodium HEPES-buffered saline solution (LNHBSS) (150 mM Choline Chloride, […] (Sigma), 1 mM Calcium Chloride, 5 mM Potassium Chloride, 1 mM Magnesium Chloride, 10 mM Glucose) agents diluted with LNHBSS are added to each well. (Varying concentrations of test agent may be used). The activation/radiolabel mixture contains aconitine (Sigma), and ^14C-guanidine hydrochloride (ARC).
After loading the cells with test agent and activation/radiolabel mixture, the Scintiplates are incubated at ambient temperature. Following the incubation, the Scintplates are extensively washed with LNHBSS supplemented with guanidine (Sigma). The Scintiplates are dried and then counted using a Wallac MicroBeta TriLux (Perkin-Elmer Life Sciences). The ability of the test agent to block sodium channel activity is determined by comparing the amount of ^14C-guanidine present inside the cells expressing the different sodium channels.
IC-50 value of a test agent for a specific sodium channel may be determined using the above general method. IC-50 may be determined using a 3,8,10,12 or 16 point curve in duplicate or triplicate with a starting concentration of 1, 5 or 10 μM diluted serially with a final concentration reaching the sub-nanomolar, nanomolar and low micromolar ranges. Typically the mid-point concentration of test agent is set at 1 μM, and sequential concentrations of half dilutions greater or smaller are applied (e.g. 0.5 μM; […] and 0.25 μM; 10 μM and 0.125 μM; 20 μM etc.). The IC-50 curve is calculated using the 4 Parameter Logistic Model or Sigmoidal Dose-Response Model formula (fit=(A+((B−A)/(1+((C/x)̂D)))).
An IC50 of at least 10 µM was found for `CCCCc1nc2ccccn2c(=O)c1-c1ccc(NC(=O)OC(C)(C)C)cc1` [Example 1.15, tert-butyl 4-(2-butyl-4-oxo-4H-pyrido[1,2-a]pyrimidin-3-yl)phenylcarbamate] in this work.
An IC50 of at least 10 µM was found for `CCCCc1nc2ccccn2c(=O)c1-c1ccc(O)cc1` [Example 11, 2-butyl-3-(4-hydroxyphenyl)-4H-pyrido[1,2-a]pyrimidin-4-one] in this work.
An IC50 of at least 10 µM was found for `CCCCc1nc2ccccn2c(=O)c1-c1ccc(N[C@@H]2CCNC2)cc1C` [Example 7.3, (R)-2-butyl-3-{2-methyl-4-[pyrrolidin-3-ylamino]phenyl}-4H-pyrido[1,2-a]pyrimidin-4-one hydrochloride] in this work.
An IC50 of at least 10 µM was found for `CCCCc1nc2ccccn2c(=O)c1-c1ccc(NC2CCNCC2)cc1` [Example 6.1, 2-butyl-3-[4-(piperidin-4-ylamino)phenyl]-4H-pyrido[1,2-a]pyrimidin-4-one hydrochloride] in this work.
An IC50 of at least 10 µM was found for `CCCCc1nc2ccccn2c(=O)c1-c1ccc(N[C@@H]2CCCNC2)cc1` [Example 6.2, (R)-2-butyl-3-{4-[piperidin-3-ylamino]phenyl}-4H-pyrido[1,2-a]pyrimidin-4-one hydrochloride] in this work.
An IC50 of at least 10 µM was found for `CCCCc1nc2ccccn2c(=O)c1-c1ccc(O[C@@H]2CCNC2)cc1` [Example 15, (R)-2-butyl-3-{4-[pyrrolidin-3-yloxy]phenyl}-4H-pyrido[1,2-a]pyrimidin-4-one hydrochloride] in this work.
An IC50 of 1 to 10 µM was found for `CCCOc1nc2ccccn2c(=O)c1-c1ccc(Cl)cc1` [Example 1.25, 2-propoxy-3-(4-chlorophenyl)-4H-pyrido[1,2-a]pyrimidin-4-one] in this work.
An IC50 of at least 10 µM was found for `CC(C)c1nc2ccccn2c(=O)c1-c1ccc(NC2CCNC2)cc1` (stereo not drawn) [Example 7.5, 2-(1-methylethyl)-3-[4-(pyrrolidin-3-ylamino)phenyl]-4H-pyrido[1,2-a]pyrimidin-4-one hydrochloride] in this work.
An IC50 of at least 10 µM was found for `CCCCc1nc2ccccn2c(=O)c1-c1ccc(NC2CCOCC2)cc1` [Example 3.26, 2-butyl-3-[4-(tetrahydro-2H-pyran-4-ylamino)phenyl]-4H-pyrido[1,2-a]pyrimidin-4-one hydrochloride] in this work.
An IC50 of at least 10 µM was found for `CCCCc1nc2cc(C(F)(F)F)ccn2c(=O)c1-c1ccc(Cl)cc1` [Example 1.21, 2-butyl-3-(4-chlorophenyl)-8-(trifluoromethyl)-4H-pyrido[1,2-a]pyrimidin-4-one] in this work.
An IC50 of at least 10 µM was found for `CCCCc1nc2ccccn2c(=O)c1-c1ccc(N[C@@H]2CCNC2)c(F)c1` [Example 7.2, (R)-2-butyl-3-{3-fluoro-4-[(pyrrolidin-3-ylamino]phenyl}-4H-pyrido[1,2-a]pyrimidin-4-one hydrochloride] in this work.
An IC50 of at least 10 µM was found for `CCCc1nc2ccccn2c(=O)c1-c1ccc(N[C@@H]2CCNC2)cc1` [Example 6.5, (R)-2-propyl-3-(4-(pyrrolidin-3-ylamino)phenyl)-4H-pyrido[1,2-α]pyrimidin-4-one hydrochloride] in this work.
An IC50 of at least 10 µM was found for `CCCCc1nc2ccccn2c(=O)c1-c1ccc(OS(=O)(=O)C(F)(F)F)cc1` [Example 12, 4-(2-butyl-4-oxo-4H-pyrido[1,2-a]pyrimidin-3-yl)phenyl trifluoromethanesulfonate] in this work.
An IC50 of at least 10 µM was found for `CCCCc1nc2ccccn2c(=O)c1-c1ccc(N[C@H]2CCNC2)cc1` [Example 7.1, (S)-2-butyl-3-{4-[pyrrolidin-3-ylamino]phenyl}-4H-pyrido[1,2-a]pyrimidin-4-one hydrochloride] in this work.
An IC50 of at least 10 µM was found for `CC(C)Nc1nc2ccccn2c(=O)c1-c1ccc(N[C@@H]2CCNC2)cc1` [Example 7.10, (R)-2-[(1-methylethyl)amino]-3-{4-[pyrrolidin-3-ylamino]phenyl}-4H-pyrido[1,2-a]pyrimidin-4-one hydrochloride] in this work.
An IC50 of at least 10 µM was found for `COc1nc2ccccn2c(=O)c1-c1ccc(NC2CCNC2)cc1` (stereo not drawn) [Example 9, 2-methoxy-3-[4-(pyrrolidin-3-ylamino)phenyl]-4H-pyrido[1,2-a]pyrimidin-4-one trifluoroacetate] in this work.
An IC50 of at least 10 µM was found for `CCCCc1nc2ccccn2c(=O)c1-c1ccc2c(c1)CCN2C1CCNC1` (stereo not drawn) [Example 7.12, 2-butyl-3-(1-(pyrrolidin-3-yl)indolin-5-yl)-4H-pyrido[1,2-a]pyrimidin-4-one hydrochloride] in this work.
An IC50 of at least 10 µM was found for `CCCCc1nc2ccccn2c(=O)c1-c1ccc(N2CCNCC2)nc1` [Example 7.13, 2-butyl-3-(6-piperazin-1-ylpyridin-3-yl)-4H-pyrido[1,2-a]pyrimidin-4-one hydrochloride] in this work.
An IC50 of at least 10 µM was found for `CCc1nc2ccccn2c(=O)c1-c1ccc(N[C@@H]2CCN(C(=O)OC(C)(C)C)C2)cc1` [Example 3.4, (R)-tert-butyl 3-(4-(2-ethyl-4-oxo-4H-pyrido[1,2-a]pyrimidin-3-yl)phenylamino)pyrrolidine-1-carboxylate] in this work.
An IC50 of at least 10 µM was found for `CCCCc1nc2ccc(F)cn2c(=O)c1-c1ccc(N[C@@H]2CCNC2)cc1` [Example 6.7, (R)-2-butyl-7-fluoro-3-{4-[pyrrolidin-3-ylamino]phenyl}-4H-pyrido[1,2-a]pyrimidin-4-one hydrochloride] in this work.
An IC50 of at least 10 µM was found for `O=c1c(-c2ccc(N[C@@H]3CCNC3)cc2)c(N2CCCC2)nc2ccccn12` [Example 7.11, (R)-2-pyrrolidin-1-yl-3-{4-[pyrrolidin-3-ylamino]phenyl}-4H-pyrido[1,2-a]pyrimidin-4-one hydrogen chloride] in this work.
An IC50 of at least 10 µM was found for `CCCCc1nc2c3ccccc3ccn2c(=O)c1-c1ccc(N[C@@H]2CCNC2)cc1` [Example 6.9, (R)-2-butyl-3-{4-[pyrrolidin-3-ylamino]phenyl}-4H-pyrimido[2,1-a]isoquinolin-4-one hydrochloride] in this work.
An IC50 of at least 10 µM was found for `CCCNc1nc2ccccn2c(=O)c1-c1ccc(NC2CCNC2)cc1` (stereo not drawn) [Example 7.8, 2-(propylamino)-3-[4-(pyrrolidin-3-ylamino)phenyl]-4H-pyrido[1,2-a]pyrimidin-4-one hydrochloride] in this work.
An IC50 of at least 10 µM was found for `CCCCc1nc2ccccn2c(=O)c1-c1ccc(NC[C@@H]2CCCO2)cc1` [Example 3.28, (S)-2-butyl-3-(4-{[tetrahydrofuran-2-ylmethyl]amino}phenyl)-4H-pyrido[1,2-a]pyrimidin-4-one hydrochloride] in this work.
An IC50 of at least 10 µM was found for `CC(C)Nc1nc2ccccn2c(=O)c1-c1ccc(NC2CCNC2)cc1` (stereo not drawn) [Example 7.9, 2-[(1-methylethyl)amino]-3-[4-(pyrrolidin-3-ylamino)phenyl]-4H-pyrido[1,2-a]pyrimidin-4-one hydrochloride] in this work.
An IC50 of at least 10 µM was found for `CCCOc1nc2ccccn2c(=O)c1-c1ccc(N[C@@H]2CCNC2)cc1` [Example 9.1, (R)-2-propoxy-3-(4-(pyrrolidin-3-ylamino)phenyl)-4H-pyrido[1,2-a]pyrimidin-4-one trifluoroacetate] in this work.
An IC50 of at least 10 µM was found for `CCCCc1nc2ccccn2c(=O)c1-c1ccc(N2CCOCC2)cc1` [Example 3.25, 2-butyl-3-(4-morpholin-4-ylphenyl)-4H-pyrido[1,2-a]pyrimidin-4-one] in this work.
An IC50 of at least 10 µM was found for `CCCCc1nc2ccccn2c(=O)c1-c1ccc(N[C@@H]2CCOC2)cc1` [Example 3.29, (R)-2-butyl-3-{4-[tetrahydrofuran-3-ylamino]phenyl}-4H-pyrido[1,2-a]pyrimidin-4-one hydrochloride] in this work.
An IC50 of 0.1 to 1 µM was found for `O=c1c(-c2ccc(N[C@@H]3CCNC3)cc2)c(CCC2CC2)nc2ccccn12` [Example 7.7, (R)-2-(2-cyclopropylethyl)-3-(4-(pyrrolidin-3-ylamino)phenyl)-4H-pyrido[1,2-a]pyrimidin-4-one hydrochloride] in this work.
An IC50 of at least 10 µM was found for `CCCCc1nc2ccccn2c(=O)c1-c1ccc(OC)cc1` [Example 1, 2-butyl-3-(4-methoxyphenyl)-4H-pyrido[1,2-a]pyrimidin-4-one] in this work.
An IC50 of at least 10 µM was found for `CCCCc1nc2ccc(C)cn2c(=O)c1-c1ccc(N[C@@H]2CCNC2)cc1` [Example 6.6, (R)-2-butyl-7-methyl-3-{4-[pyrrolidin-3-ylamino]phenyl}-4H-pyrido[1,2-a]pyrimidin-4-one hydrochloride] in this work.
